Measurements published in patent US4792554A, “Pyridine compounds, pharaceutical compositions, their use in allergy therapy” (priority 1985, dated 1988).

Assays:
histamine = assay: Antagonistic action towards histamine: inhibition of histamine-induced bronchospasm in anesthetized guinea pigs (Konzett-Rössler); type: in vivo, guinea pig; settings: Cavia porcellus, iv, anesthetized guinea pigs, dose reducing induced spasm to one half; read-out: Inhibitory action towards histamine (ED50)
Protocol: (§1) 1. Antagonistic action towards the allergy mediators (on anesthetized guinea pigs)
(§2) The test substances were administered intravenously in aqueous solution injected in a volume of 1 ml/kg.

bradykinin = assay: Antagonistic action towards bradykinin: inhibition of bradykinin-induced bronchospasm in anesthetized guinea pigs (Konzett-Rössler); type: in vivo, guinea pig; settings: Cavia porcellus, iv, anesthetized guinea pigs, dose reducing induced spasm to one half; read-out: Inhibitory action towards bradykinin (ED50)
Protocol: as §1, §2

[1] = Acute toxicity, mortality within 7 days after single i.p. administration to NMRI mice; settings: in vivo, ip, mouse i.p.
Protocol: The LD50 values were determined by the standard method of the mortality occurring within 7 days after a single intraperitoneal (i.p.) administration to NMRI mice (NMRI=Naval Medical Research Institute).

mast cells = assay: Passive cutaneous anaphylaxis (PCA) in the rat, inhibition of mediator release (protective effect on mast cells); type: in vivo; settings: Mast cell
Source text: (a) Passive cutaneous anaphylaxis (PCA) in the rat (PCA test) Passive cutaneous anaphylaxis is an IgE-mediated allergy of the immediate type (type I). In this model, antibodies bound to mast cells and basophilic granulocytes react with an intravenously administered antigen with release of excessive amount of the allergy mediators. The histamine which is released during this can be visualized by simultaneous application of Evans blue to the shaven flanks of the rats. Photometric evaluation of the color intensity was used to determine, by means of the percentage inhibition of mediator release compared with untreated control animals, the protective effect on mast cells of the compound according to the invention after oral administration.

[2] = test system: rat peritoneal mast cells; assay: Histamine release from isolated rat mast cells induced by calcium ionophore A 23 187; type: cell-based; settings: Mast cell, 0.25 h, 15 min incubation, A 23 187 10^-6 g/ml, read-out: Inhibitory action in the Ca ionophore test IC50
Protocol: (b) Histamine release from isolated rat mast celss induced by calcium ionophore A 23 187 […] […] For this purpose, 10^4 cells were suspended in Clicks/RPMI (50:50, vol.; supplied by Serva, Heidelberg) tissue culture medium, incubated with the test substance for 15 minutes, and then treated with calcium ionophore A 23 187 at a concentration of 10^-6 g/ml. The released histamine was determined by high-pressure liquid chromatography (HPLC). The measure used for the inhibitory action was the IC50 which represents the molar concentration (mol/l) at which the induced histamine release was decreased to one half that of cells which had not been pretreated with a product. In this context, IC50 values above 10^-5 mol/l are regarded as therapeutically irrelevant.

[3] = test system: asthma induced by histamine; assay: Inhibition by inhalation of allergic asthma induced by histamine in conscious guinea pigs; type: in vivo, guinea pig; settings: 0.3% strength aerosol
[4] = test system: platelet activating factor (PAF); assay: Antagonism of PAF-induced bronchospasm in anesthetized rats; type: in vivo, rat; settings: Rattus norvegicus, Platelet; intravenous, anesthetized rats
Protocol: (§3) The compounds of the formula I and their salts additionally show a pronounced inhibitory action on platelet activating factor (PAF) and the leukotrienes, which are likewise released as spasmogenic mediators from the mast cells during the course of the immediate anaphylactic reaction. It was possible to antagonize the bronchospasm induced in anesthetized rats by administration of PAF by, for example, intravenous administration of the compound of Example 3 with a ED50 of 1-3 mg/kg. The said products of the state of the art, such as oxatomide, ketotiphen and terfenadine, have no action in this test. The contractions induced by calcium ionophore A 23 187 in isolated strips of lung and the isolated trachea of guinea pigs were inhibited by, for example, the compound of Example 3 with an IC50 of 0.1-0.3 μg/ml. Since calcium ionophore A 23 187 stimulates 5-lipoxygenase and thus promotes the formation of spasmogenic leukotrienes, a possible interpretation of the result of this experiment is that the compounds according to the invention are potent leukotriene inhibitors.

[5] = test system: isolated strips of lung and the isolated trachea of guinea pigs; assay: Inhibition of contractions induced by calcium ionophore A 23 187 in isolated strips of lung and isolated trachea of guinea pigs; settings: guinea pig
Protocol: as §3

leukotriene D4 = assay: Inhibition of leukotriene D4-induced spasm in isolated guinea pig trachea; settings: leukotriene D4 10 pg/ml
[6] = test system: airway obstruction induced by histamine aerosol; assay: Plethysmographic investigation on conscious guinea pigs with airway obstruction induced by inhalation of histamine aerosol; type: in vivo, guinea pig; settings: oral, 0.3% strength histamine aerosol
[7] = Normal weight gain of rats in a subchronic 14-day experiment; type: in vivo, rat; settings: high oral doses
Source text: Finally, the compound of Example 3 had no effect, even at high oral doses, on the normal weight gain of rats in a subchronic 14-day experiment. It is evident from this that the compounds of the formula I have no appetite-stimulating action in contrast to many other antihistamines.

`Cc1cc(NCCN2CCN(C(c3ccccc3)c3ccccc3)CC2)c([N+](=O)[O-])c(C)n1.Cl.Cl.Cl` [Example 3, 2,6-dimethyl-3-nitro-4-[(2-{4-diphenylmethyl-1-piperazinyl}ethyl)amino]pyridine trihydrochloride] showed an ED50 (histamine) of 0.3 mg/kg, an ED50 (bradykinin) of 0.15 mg/kg and an LD50 at 168 h [1] of 300 to 600 mg/kg. It also gave an inhibition in vivo at 12.5 mg/kg (mast cells; oral dose 12.5 mg/kg) of 26%, an inhibition in vivo at 25 mg/kg (mast cells; oral dose 25 mg/kg) of 61% and an inhibition in vivo at 50 mg/kg (mast cells; oral dose 50 mg/kg) of 85%. The IC50 [2] was 10 nM, the “suppression of experimentally induced asthma attacks” value [3] was “substantial suppression” and the ED50 [4] was 1 to 3 mg/kg. For the same molecule, the “IC50, contractions induced by calcium ionophore A 23 187” value [5] was 0.1 to 0.3 µg/mL, the “concentration inhibiting leukotriene D4-induced spasm by 50%” value (leukotriene D4) was 3 to 6 µg/mL and the ED50 ([6]; Cavia porcellus) was 3.15 mg/kg. For the same molecule, the “time after administration to maximum effect” value [6] was 30 min and the “effect on normal weight gain” value [7] was “no effect”.
